Data set [1] has as its system C57BL/KsJ db/+ mice. The settings on record: for hair growth on dorsum (photograph): 31 days post application. On the procedure: The induction of hair loss following treatment with certain anticancer drugs, such as cyclophosphamide or doxorubicin, is well documented (A. Tierney & J. Taylor (1991) Nurs. Stand 5:29-31; R. R. Love, et al. (1989) Cancer 63:604-612; B. W. Cline (1984) Cancer Nurs. 7:221-228). The following experiment was performed to determine the effect of n-butyl cyanoacrylate on hair regrowth in mice pre-treated with cyclophosphamide or doxorubicin. Twenty mice of strain C57BL/KsJ db/+ were peritoneally injected with either cyclophosphamide in PBS (20 mg per kilogram of body weight) or Doxorubicin in PBS (2 mg per kilogram of body weight) for 10 consecutive days. Then a single 10 μl dose of n-butyl cyanoacrylate was applied topically to an area of the shaved dorsum of each animal. Control mice, which were injected with PBS alone, were treated similarly. The effects of hair regrowth were determined both by phototrichogram (macroscopic observation using photography) and by folliculogram (microscopic observation of histological changes in the treated and untreated skin).

In data set [2] the test system is C57BL/KsJ db/+ mice. As to the kind of experiment: Subdermal application by subcutaneous injection. In kind it is in vivo, mouse. As to the method:
In another example, 20 μl of n-butyl cyanoacrylate was applied subdermally by subcutaneous injection to a group of C57BL/KsJ db/+ mice.

The subject of data set [3] is TGF-β2,3. As to the kind of experiment: Immunohistochemistry of growth factors in treated skin. In kind it is in vivo, mouse. The settings on record: throughout the study period.
Method: Forty stock female mice of strain C57BL/KsJ db/+ at eight weeks of age were treated with a single dose of n-butyl cyanoacrylate applied topically to the shaved dorsum. Animals were sacrificed at days 4, 6, 8, 10, 12, 14, 16, 18, 20, and 22 post-treatment, and skin samples were excised to yield an area of n-butyl cyanoacrylate treated skin together with a contiguous, adjacent sample of untreated skin. In preparation for immunohistochemistry, samples were washed in PBS, fixed in 10% formalin, and secondarily fixed in Bouin's solution prior to paraffin embedding. Multiple 4-5 μm sections were placed on slides pre-coated with 3-aminopropylethoxysilane.
The following primary antibodies were used: anti-TGF-β1 neutralizing antibody; anti-TGF-β2,3; and anti-EGF receptor.
Data set [4] relates to NIH/3T3 fibroblasts. As to the kind of experiment: Fibroblast cell proliferation assay with extracts of treated skin. In kind it is cell-based. On the procedure: A single topical application of 20 mg of n-butyl cyanoacrylate was made to an area of shaved skin on the dorsum of strain C57BL/KsJ db/+ mice. At days 10 and 20 post-treatment, skin samples were excised from treated areas. Skin tissue was frozen in dry ice, minced, homogenized in ice-cold PBS, and centrifuged at 15,000 g for 30 minutes at 4° C. The protein concentration of supernatants was adjusted to 1.0 mg/ml by the BioRad assay procedure (BioRad Laboratories, Richmond, Calif.). Skin samples from untreated areas of the same strain were harvested and processed identically. Mouse serum albumin was prepared at a concentration of 1.0 mg/ml in PBS as a control. An aliquot of each supernatant extract was fractionated according to size with a nominal 30 kilo Dalton (kDa) cutoff, and the low molecular weight fraction (≦30 kDa) was included in the fibroblast cell proliferation assay, as follows.
The supernatant extracts from treated and untreated skin samples, and mouse serum albumin control, were added to a quartet of wells in a 96 well plate, and 2-fold serially diluted 11 times. NIH/3T3 fibroblasts (ex American Type Culture Collection, Rockville, Md.) were harvested at about 80% confluence, seeded into each well at a density of 5,000 cells per well, and supplemented with serum-free assay medium (QBSF 56, Quality Biological Inc., Gaithersburg, Md.). Cell proliferation was determined according to the protocol of the CellTitre 96 Non-Radioactive Cell Proliferation Assay (Promega, Madison, Wis.).

Data set [5] concerns skin of mice (C57BL/KsJ db/+ and C57BL/KsJ db/db). As to the kind of experiment: Hair growth in organ culture of treated skin (ex vivo). The arrangement: species or system mouse. As to the method:
The shaved dorsal skin of mice (C57BL/KsJ db/+ and C57BL/KsJ db/db) was treated with n-butyl cyanoacrylate by a single topical application at a dose of 10 mg cm^2. One hour later, the skin (0.5×1.0 cm) containing both treated and untreated areas was excised, rinsed in PBS, cultured in Dulbecco's Modified Eagle Medium (Gibco BRL, Gaithersburg, Md.) supplemented with 10% fetal bovine serum (HyClone Laboratories, Logan, Utah) at an atmosphere of […] and 5% CO2, 37° C. Hair growth was recorded by macroscopy.

For data set [6], the system named is C57BL/KsJ db/+ and C57BL/KsJ db/db mice. Put plainly: Effect of isobutyl cyanoacrylate on hair growth, topical. Type of data set: in vivo, mouse. The settings on record: C57BL/KsJ db/db, 10 μl cm^−2 topical. As to the method:
The following experiment was performed to identify the effect of isobutyl cyanoacrylate, a structural analog of n-butyl cyanoacrylate, on hair growth. The shaved backs of C57BL/KsJ db/+ and C57BL/KsJ db/db mice were treated topically at a dose of 10 μl cm^−2 with either isobutyl cyanoacrylate (Sigma Chemical Co., St Louis, Mo.) or n-butyl cyanoacrylate.

Molecules are shown by their SMILES. Entries after “also recorded” stand apart in the source; their conditions may differ. Where two headings read alike, the source gives them in different places.

As for `C=C(C#N)C(=O)OCCCC` [n-butyl cyanoacrylate], in data set [1] (animals pre-treated with cyclophosphamide, after treatment), the “time new hair remained (until sacrifice)” value is no less than 335 days. The “time of growing to full length” value in data set [1] (mice pre-treated with cyclophosphamide, doxorubicin and PBS, post treatment) was in the range of 15 to 18 days. For the same compound, the “beginning of hair regrowth in treated areas” value in data set [1] (mice pre-treated with cyclophosphamide, doxorubicin and PBS, single 10 μl topical dose, post treatment) lay in the range of 8 to 11 days. Besides, the “hair growth on dorsum (photograph)” value in data set [1] (pre-treated with cyclophosphamide) is listed as “profound growth of new unpigmented gray hairs in the treated area”; in data set [1] (pre-treated with doxorubicin), “profound growth of hair with normal pigmentation in the treated area”. In data set [2] (68 days after subcutaneous injection), the “histology after subcutaneous injection” value is given as “development of new hair follicles in the treated site”. Also, the “histology after subcutaneous injection vs untreated site” value in data set [2] (subcutaneous injection, 20 μl) is “induces de novo hair follicle formation and the thickening of full-thickness skin”. Further, the “intensity of TGF-β2,3 stain in the epidermis” value in data set [3] is listed as “greater than that of TGF-β1”. Also, in data set [4], the “activity of extract from skin harvested at 20 days post-treatment vs 10 days” value was “more active than the extract from skin harvested at 10 days post-treatment”. The “activity of protein extracts of treated skin vs extract of untreated skin” value in data set [4] (skin treated topically with 20 mg, harvested days 10 and 20) is recorded as “more active in stimulating proliferation of NIH/3T3 cells”. Also, in data set [4] (treated and untreated skin), the “activity of low molecular weight fraction (30 KDa or less) of skin extract” value is listed as “no discernible effect on cell proliferation; also recorded: filtration step removes stimulation”. Also, the “hair growth in organ culture (photograph)” value in data set [5] (14 days in organ culture after treatment) is listed as “hair growth is apparent in the treated area”. Further, the “time to which hair growth lasted (end of the experiment)” value in data set [5] (organ culture, post treatment) is no less than 25 days. Moreover, in data set [5] (organ culture, single topical application 10 mg cm^2 one hour before excision, post treatment), the “time at which hair growth in the treated area was observed” value was 7 to 12 days. Moreover, the Hair growth in data set [6] is recorded as 3+ (high hair regeneration with an area larger than 50% of the treated area).

(Values after US20020065314A1, “COMPOSITIONS AND METHOD FOR STIMULATING HAIR GROWTH” (priority 1995, published 2002).)
